The test system of the test is CEM cells HIV-1 protection, formazan growth assay. Kind of test: NCI AIDS Antiviral Assay. Conditions: for IC50: measured here: growth of uninfected CEM cells. In a few lines: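 Screen of anti-HIV-1 activity in human CEM cells using a formazan-based growth measurement at five drug concentrations. Hits with 50% or greater protection were repeated, and confirmation required reproducible complete protection.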

For orientation: EC50 means the concentration giving half of the maximal effect. The term IC50 denotes the midpoint of a concentration-inhibition curve. High values mean weaker potency, low ones greater potency.

The structures appear in SMILES notation. Activity calls are given as the source filed them.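 Rule for the calls: active = compounds giving half or more protection of infected cells from virus-caused growth loss, again on retest; inactive = the rest.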 A value given as a limit tells only on which side of the number the result lay.

Take `CC(=O)C1c2ccccc2C(C(C)=O)(c2ccccc2)C1c1ccccc1` (stereo not drawn): the EC50 is over 200 µM and the IC50 was found to be 38 µM.
Take `N#CNc1nc(N)c(-c2ccc(Cl)cc2)c(C(=O)Nc2ccc(Cl)c(Cl)c2)n1`: the result was inactive.
Take `C[C@]12CCC3C(CC[C@H]4C/C(=C/C#N)CC[C@]34C)C1CC/C2=C\C#N` (stereo partly drawn): the EC50 was over 100 µM and the IC50 stood at 25.7 µM.
On to `C[N+](C)=c1nc(N2CCOCC2)ss1`, for which the outcome was inactive.
Turning to `O=c1[nH]nc(-c2ccccc2)n1-c1ccncc1`, the EC50 is over 200 µM and the concentration for half-maximal inhibition (IC50) is over 200 µM.
Turning to `CC1(C)/C(=N\Nc2ccc([N+](=O)[O-])cc2[N+](=O)[O-])C2CCC1C2` (stereo not drawn), the EC50 was over 200 µM and the IC50 was over 200 µM.
As to `CCOC(=O)NNC(=O)C1CSC(c2ccccc2)N1C(C)=O` (stereo not drawn), the EC50 is over 200 µM and the IC50 is over 200 µM.
Turning to `Cc1cn([C@H]2C[C@@H]3[C@@H](COC(C(Cl)Cl)N3O)O2)c(=O)[nH]c1=O` (stereo partly drawn), the EC50 is over 200 µM and the IC50 is over 200 µM.
Consider `O=[N+]([O-])c1cccc2nsnc12`, for which the EC50 was over 145 µM and the IC50 was determined as 23.4 µM.
Take `COc1ccc(/C=C/c2nc(=S)[nH][nH]2)cc1OC`: the EC50 was over 135 µM and the 50% inhibitory concentration (IC50) came out at 110 µM.
As for `N#C/C(=C\c1ccccc1)c1ccccc1F`, the EC50 is over 200 µM and the IC50 came to 37.2 µM.
For `S=C1NC2(CCCCC2)C2=C(CCCC2)S1`, in that order: over 141 µM and 12 µM.
On to `CCC(=O)C(C)C1=Nc2nnc(CCCCCCCc3nnc4n3C(=O)C(C(C)C(=O)CC)=N4)n2C1=O` (stereo not drawn), for which the EC50 is over 1.07 µM and the half-inhibitory concentration (IC50) was over 1.07 µM.
As for `Cc1ccc(NC(=O)c2cc(S(=O)(=O)n3cc[nH]c3=O)c(S)cc2Cl)cc1`, the EC50 is over 200 µM and the IC50 was over 200 µM.
On to `COC(=O)/C(=N/NC(N)=O)C(C(=O)C(=O)Nc1ccc(C)cc1)c1nc2ccc(C(=O)c3ccccc3)cc2[nH]c1=O` (stereo not drawn), for which the EC50 is over 33.1 µM and the IC50 is over 33.1 µM.
For the compound `O=C1c2cc([N+](=O)[O-])cnc2S(=O)(=O)N1c1ccc(Br)cc1`, the EC50 was over 200 µM and the IC50 was 95.5 µM.
Consider `CSc1nn(C)cc2nc(C)nc1-2`, for which the EC50 is over 200 µM and the IC50 is over 200 µM.
For `CCCCOP(=O)(OCCCC)/C(C#N)=C/c1ccc(C)o1`, the EC50 was over 200 µM and the concentration for half-maximal inhibition (IC50) came out at 102 µM.
Turning to `OC1CC2CCC(C1)S2` (stereo not drawn), the EC50 was over 200 µM and the concentration for half-maximal inhibition (IC50) is over 200 µM.
As to `O=c1[nH]c(=O)n(C2CC(O)C(CO)O2)cc1OCCc1ccccc1` (stereo not drawn), the EC50 is over 200 µM and the 50% inhibitory concentration (IC50) was over 200 µM.
Regarding `COc1ccc(/C(C#N)=C/c2cccc(N)c2)cc1`, the EC50 was over 200 µM and the IC50 came out at 25.1 µM.
Regarding `CN(C)c1ccc(C(=CC=C2C(=O)NC(=O)NC2=O)c2ccc(N(C)C)cc2)cc1`, the EC50 was over 4.9 µM and the IC50 was over 4.9 µM.
Regarding `Cc1cn(CC2=NCCCN2)c(=O)[nH]c1=O`, the EC50 is over 200 µM and the IC50 was over 200 µM.
With `CC1=C/C(=N\NC(N)=S)C(C(O)(C(F)(F)F)C(F)(F)F)C(C)(C)C1` (stereo not drawn), the EC50 was over 200 µM and the concentration for half-maximal inhibition (IC50) amounted to 89.1 µM.
Take `C/C=C(\N=C=S)C(=O)OC1C(COC(C)=O)OC([C@]2(O)CC(=O)C(=N)C(C(=O)O)=C2O)C(O)C1OC1CC(OC)C(O)([C@@H](C)OC(=O)[C@@H](C)CC)C(C)O1` (stereo partly drawn): the result was inactive.
As to `N#Cc1c(N)n(-c2cccc(C(=O)O)c2)c(=O)c2cc([N+](=O)[O-])ccc12`, the EC50 was over 200 µM and the half-maximal inhibitory concentration (IC50) is over 200 µM.
With `Cc1ccc(S(=O)(=O)N2CCSCCSCCSCCSCC2)cc1`, the EC50 is over 12 µM and the IC50 was over 12 µM.
Take `CCOC(=O)C(=Cc1cccc(F)c1)C(=O)OCC`: the EC50 was over 355 µM and the IC50 came out at 22.4 µM.
For the compound `Cc1c(/C=N/NC(=S)Nc2ccccc2Cl)c(=O)n(-c2ccccc2)n1C`, the EC50 is over 200 µM and the IC50 was found to be 26.9 µM.
For `CCCCCCC(O)CCCC(O)C1CCC(C2CCC(C(O)CCCCCCCCCCCCC3=CC(C)OC3=O)O2)O1` (stereo not drawn), the result was inactive.
As for `C=C(C)c1nc(C#N)c(N)o1`, the EC50 is over 200 µM and the IC50 is over 200 µM.
As for `COc1ccc(N2C(=O)/C(=C/c3ccc(N(CCC#N)CCC#N)cc3)N=C2c2ccccc2)cc1`, the EC50 was over 200 µM and the IC50 was over 200 µM.
Consider `O=C1c2ccccc2C(=O)C2C1C1C(=O)c3ccccc3C(=O)C21` (stereo not drawn), for which the result was inactive.
For `COc1ccc(/C(=N\NC(=S)NN)C(c2ccc(OC)cc2)C2C(=O)Oc3ccccc32)cc1` (stereo not drawn), the EC50 was over 75.9 µM and the half-inhibitory concentration (IC50) was over 75.9 µM.
In the case of `N=C(N)N=Nc1cc(O)c(NN=C(N)N)cc1O`, the EC50 is over 200 µM and the IC50 is 110 µM.
On to `O=C(C[N+]12CCC(O)C1C(CO)CC2)c1ccc(Br)cc1` (stereo not drawn), for which the EC50 is over 575 µM and the IC50 is over 575 µM.
Turning to `Cc1c(/C=N/NC(=S)Nc2cccc(Cl)c2)c(=O)n(-c2ccccc2)n1C`, the EC50 is over 200 µM and the half-inhibitory concentration (IC50) was over 200 µM.
`COC1=C(C2=C(OC)C(=O)c3cc4c(c(O)c3C2=O)C(=O)OC(C)C4)C(=O)c2c(cc3c(c2O)C(=O)OC(C)C3)C1=O` (stereo not drawn): the outcome was inactive.
For the compound `CCc1[nH]c(=O)c2oc3cc4ccccc4cc3c2c1C(=O)O`, the EC50 is over 200 µM and the IC50 was over 200 µM.
With `COC(=O)c1ccc(NCc2cc(O)c3ccccc3c2O)cc1`, the EC50 is over 200 µM and the IC50 was 3.02 µM.
Consider `Cc1ccccc1N=Nc1c(S(=O)(=O)O)cc2cc(NC(=O)Nc3ccc4c(O)c(N=Nc5ccc6cc(S(=O)(=O)O)ccc6c5)c(S(=O)(=O)O)cc4c3)ccc2c1O`, for which the outcome was active.
For the compound `C[C@H]1Oc2c3c(c4c(c2C(=O)[C@@H]1C)OCC=C4)OCC=C3`, the EC50 is over 200 µM and the half-inhibitory concentration (IC50) worked out at 89.1 µM.
Turning to `N#CC(C#N)=Cc1c[nH]c2ccccc12`, the outcome was inactive.
Turning to `CC(=O)O[C@@H]1[C@H](OC(=O)CC(C)C)c2c(ccc3ccc(=O)oc23)OC1(C)C`, the half-maximal effective concentration (EC50) is 13.5 µM and the IC50 amounted to 53.7 µM.
With `C(=Nc1cnc2ccccc2c1)c1ccccn1`, the EC50 was over 407 µM and the half-inhibitory concentration (IC50) turned out to be 102 µM.
In the case of `N#CC1=C(S)N(C2OC(CO)C(O)C(O)C2O)C(c2ccccc2)=CC1c1ccco1` (stereo not drawn), the EC50 was over 200 µM and the IC50 came to 42.7 µM.
In the case of `N#CCC(=O)N/N=C(\CCN1CCCC1)CC(c1ccccc1)c1c(O)c2ccccc2oc1=O` (stereo not drawn), the EC50 was over 97.7 µM and the concentration for half-maximal inhibition (IC50) amounted to 55 µM.
Turning to `Cc1nc(N)c(-c2ccccc2)s1`, the EC50 is over 135 µM and the half-maximal inhibitory concentration (IC50) is over 135 µM.
As for `CCCCN(CCCC)CCCn1cnc2ncccc2c1=O`, the result was inactive.
For the compound `N#CC(C#N)=C1CCC2C(=C(C#N)C#N)CCC12` (stereo not drawn), the result was inactive.
The same measure, in the same setting: for `O=C1NC(O)c2cc(Cl)cc(Cl)c2O1` (stereo not drawn) the value was “inactive”.
`Cc1ccc2c(c1)[nH]c(=S)n2/C=C(/c1ccc(Cl)cc1)S(=O)(=O)Cc1ccc(Cl)cc1`: the EC50 is over 200 µM and the half-inhibitory concentration (IC50) is over 200 µM.
For `COCCc1c(C)c(C#N)c2n(C)c3ccccc3n2c1=O`, the EC50 was over 200 µM and the IC50 was over 200 µM.
As to `c1ccc(Nc2nnnn2-c2ccccc2)cc1`, the EC50 was over 200 µM and the half-inhibitory concentration (IC50) is over 200 µM.
Turning to `Cn1c([C@H](C#N)c2ncccc2[N+](=O)[O-])nc2ccccc21`, the EC50 was over 200 µM and the IC50 worked out at 110 µM.
The matching figures for `Cc1cccc(C=NC23CC4CC(CC(C4)C2)C3)c1`: over 102 µM and over 102 µM.
As for `O=C1NC(N2CCCCC2)=N/C1=C\c1ccccc1`, the EC50 was over 200 µM and the half-inhibitory concentration (IC50) is over 200 µM.
As for `O=C(O)c1ccccc1C1c2ccc(Cl)cc2Oc2cc(Cl)ccc21`, the EC50 is over 10 µM and the concentration for half-maximal inhibition (IC50) is over 10 µM.
In the case of `COc1cc2c3c(c1OC)C(=O)C=C3N(S(=O)(=O)c1ccc(C)cc1)CC2`, the outcome was inactive.
In the case of `N#CC(C(=O)/C(=N/N)C(C#N)c1ccc(Cl)cc1)c1ccc(Cl)cc1` (stereo not drawn), the EC50 was over 676 µM and the concentration for half-maximal inhibition (IC50) is over 676 µM.
In the case of `CC(C)C(=O)/C=C/c1ccc(Br)cc1`, the outcome was inactive.
Regarding `CC(=O)Nc1ccc(Nc2cc(=O)n(C)c(=O)[nH]2)cc1`, the EC50 was over 200 µM and the 50% inhibitory concentration (IC50) is over 200 µM.
`O=C1CSC(=Nc2ccccc2F)N1c1ccccc1F`: the EC50 is over 107 µM and the IC50 is over 107 µM.
Turning to `COC(=O)[C@]1(C)C(OC)=CC(=O)C2C1[C@H]1CCC[C@@H]21` (stereo partly drawn), the outcome was inactive.
For `COc1nc(=O)n(C2CC(F)C(CO)O2)cc1C` (stereo not drawn), the EC50 was 79.4 µM and the IC50 is over 200 µM.
The matching figures for `CC[P+](CC)(c1ccccc1)c1ccccc1`: over 676 µM and 95.5 µM.
The matching figures for `CCOC(=O)NC(O)C(Cl)(Cl)Cl` (stereo not drawn): over 200 µM and over 200 µM.
The matching figures for `O=S(=O)(O)c1cc(Nc2ccnc3ccccc23)c2c(S(=O)(=O)O)cc(S(=O)(=O)O)cc2c1`: over 200 µM and over 200 µM.
Take `N#CC(N)(C(=O)CCC(=O)Nc1cccc(Cl)c1)c1ccc(Cl)cc1` (stereo not drawn): the EC50 was over 661 µM and the IC50 was over 661 µM.
Take `CC/C(=N/OC(=O)N(C)C)c1ccccc1`: the EC50 is over 200 µM and the IC50 is over 200 µM.
Regarding `CC[C@H]1CC(=O)c2c(cc3c(c2O)C(=O)c2ccccc2C3=O)[C@@]1(C#N)C(=O)OC(C)(C)C`, the result was inactive.
In the case of `O=C(CCCC[n+]1ccccc1)Sc1ccccc1C(=O)Nc1ccc(S(=O)(=O)Nc2nccs2)cc1`, the concentration for a half-maximal effect (EC50) is 13.5 µM and the IC50 amounted to 91.2 µM.
With `C/C(=N\NC(N)=S)c1ccc(C2CCCCC2)cc1`, the outcome was inactive.
In the case of `Cc1ccc(N=Nc2ccc(O)c(CN(C)C)c2)cc1`, the EC50 was over 200 µM and the IC50 is 21.9 µM.
As to `c1csc(-c2nc3sc(-c4cccs4)nc3s2)c1`, the outcome was inactive.

These data come from PubChem BioAssay AID179 (DTP/NCI, 2004).
